Results: patent publication US8354430B2, “Monohydrochloride salt of 1-[3-[3-(4-chlorophenyl) propoxy]propyl]-piperidine” (priority 2005, dated 2013)
Several values for one entry are separate records, joined by “and”; a condition that tells them apart may be missing. Equal values may be shown once. Entries after “also recorded” stand apart in the source; their conditions may differ.

Legend:
[1] = Stability to oxidation conditions (melting points under nitrogen and oxygen atmosphere); format: physicochemical
Experimental: Melting points of the above salts were also determined under nitrogen and oxygen atmosphere, in order to verify their stability to oxidation conditions.

[2] = 13-week repeat oral dose study in rats; conditions: rat, in vivo, read-out: NOAEL (no observed adverse effect level)
[3] = molecular target: T1, rat H3R (Rattus norvegicus, UniProt Q9QYN8); assay: A23187-evoked [3H]arachidonic acid release from CHO cells expressing rat H3R; format: cell-based; conditions: 1 μM, rat H3R 300-400 fmol/mg protein
T1 construct: expressed in transfected cells; host or cells: CHO cells
T1 sequence (Q9QYN8 whole entry): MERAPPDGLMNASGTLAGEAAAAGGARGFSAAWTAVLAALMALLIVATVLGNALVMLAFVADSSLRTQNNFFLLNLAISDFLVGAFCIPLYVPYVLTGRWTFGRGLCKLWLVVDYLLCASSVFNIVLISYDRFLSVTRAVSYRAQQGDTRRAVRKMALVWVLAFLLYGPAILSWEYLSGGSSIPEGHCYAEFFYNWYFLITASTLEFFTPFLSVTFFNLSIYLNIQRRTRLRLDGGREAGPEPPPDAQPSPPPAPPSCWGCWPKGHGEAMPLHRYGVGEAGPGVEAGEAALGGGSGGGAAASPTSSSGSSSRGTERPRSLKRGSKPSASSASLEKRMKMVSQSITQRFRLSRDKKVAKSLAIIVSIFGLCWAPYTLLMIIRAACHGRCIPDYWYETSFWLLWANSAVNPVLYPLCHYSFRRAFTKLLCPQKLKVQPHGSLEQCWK

[4] = test system: volunteers; assay: Single ascending dose EEG, psychometric and vigilance study in volunteers; format: in vivo, human
Experimental: A single-center, double-blind, randomized, placebo-controlled, single ascending doses, electroencephalographic study was performed in 36 volunteers. Subjects were consecutively enrolled in groups 1 to 6 (1, 5, 10, 20, 40 or 60 mg). All subjects of each dose group were randomly assigned to receive either 1-[3-[3-(4-chlorophenyl) propoxy]propyl]-piperidine monohydrochloride or placebo, in such a way that 5 subjects received the product and one subject received placebo.
From the EEG spectral analysis performed before treatment, the study subjects could be stratified as microvolted (66%) and normo or grandvolted (33%). The distribution between those subjects with 30-40% slow activity and 20-25% rapid activity (microvolted), and those with 10% slow activity (normovolted) or 60-80% of [alpha]-activity (grandvolted), explains that before drug administration significant differences were elicited for 20-30 Hz and 30-40 Hz activities.

[5] = molecular target: human H3R (Homo sapiens, UniProt Q9Y5N1); assay: Histamine H3 receptor binding, recombinant human H3R expressed in rat glioma C6 cells; set-up: expressed in transfected cells; host or cells: various mammalian cells (the earlier reading names rat glioma C6)
Chain of human H3R (Q9Y5N1 whole entry): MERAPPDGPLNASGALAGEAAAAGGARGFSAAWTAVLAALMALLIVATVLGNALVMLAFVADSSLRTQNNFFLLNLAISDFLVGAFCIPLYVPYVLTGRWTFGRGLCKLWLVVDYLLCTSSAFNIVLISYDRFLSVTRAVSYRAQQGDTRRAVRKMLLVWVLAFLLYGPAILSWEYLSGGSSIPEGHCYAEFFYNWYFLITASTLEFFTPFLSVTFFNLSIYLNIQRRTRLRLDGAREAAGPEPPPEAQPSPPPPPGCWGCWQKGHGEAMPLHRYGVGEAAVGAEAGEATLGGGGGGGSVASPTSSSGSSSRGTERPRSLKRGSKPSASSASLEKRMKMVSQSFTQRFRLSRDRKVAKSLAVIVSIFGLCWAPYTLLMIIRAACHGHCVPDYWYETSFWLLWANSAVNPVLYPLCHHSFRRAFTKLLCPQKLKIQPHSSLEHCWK

[6] = molecular target: Human H4R (Homo sapiens, UniProt Q9H3N8); assay: [3H]histamine binding assay; conditions: read-out: Ki or IC50, Human H4R
Chain of Human H4R (Q9H3N8 whole entry): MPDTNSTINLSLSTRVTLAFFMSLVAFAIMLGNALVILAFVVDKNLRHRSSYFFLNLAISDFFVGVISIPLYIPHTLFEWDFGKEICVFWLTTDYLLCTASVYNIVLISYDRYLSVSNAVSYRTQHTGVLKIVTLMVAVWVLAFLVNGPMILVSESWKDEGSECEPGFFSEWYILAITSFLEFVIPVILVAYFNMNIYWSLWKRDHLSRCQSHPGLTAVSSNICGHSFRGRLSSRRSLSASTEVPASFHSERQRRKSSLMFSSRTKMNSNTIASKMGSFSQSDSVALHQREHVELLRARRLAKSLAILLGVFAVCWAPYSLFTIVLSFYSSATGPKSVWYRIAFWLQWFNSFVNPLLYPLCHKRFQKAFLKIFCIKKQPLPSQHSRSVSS

[7] = Genotoxicity in vitro or in vivo
[8] = test system: epileptic patients; assay: Photo paroxysmal response (PPR) to intermittent photic stimulation in photosensitive epileptic patients, single-blind single dose; format: in vivo, human; conditions: for Delay of apparition / Duration of effect / Suppression of PPR: individual patients
From the text: Acta Neurol. […] Unlike most other epilepsies, photosensitive epilepsy is a reflex epilepsy and epileptiform discharges can be evoked at any time by IPS in the laboratory. By determination of both upper and lower sensitivity limits (frequencies per flash) a so-called photosensitivity range can be determined. The range is related to liability of seizures in daily life of the patient. This photosensitivity range is relatively stable within a patient and can be diminished or abolished by antiepileptic medication. […] Twelve patients have been enrolled. Four patients received the dose of 20 mg. […] Four patients received the dose of 40 mg.

[9] = molecular target: T2, Mouse Brain native H3R (Mus musculus, UniProt P58406); assay: Histamine H3 receptor binding, mouse brain cortex membranes
T2 construct: was performed on mouse brain cortex membranes; from tissue; host or cells: mouse brain cortex membranes
T2 sequence (P58406 whole entry): as the sequence (Q9QYN8 whole entry) above, with T15A, A286T, A290G, R387H, I389V counted along it

[10] = 13-week repeat oral dose study in monkeys; conditions: monkey, in vivo
From the text: This dose was defined as the NOAEL in monkeys.

[11] = test system: rats; assay: Acute toxicity in rat; format: in vivo; conditions: for no-effect dose: in vivo
[12] = molecular target: H2R (Cavia porcellus, UniProt P47747); assay: [125I]iodoaminopotentidine binding assay to the guinea pig H2 receptor; conditions: read-out: Ki or IC50, H2R
Chain of H2R (P47747 whole entry): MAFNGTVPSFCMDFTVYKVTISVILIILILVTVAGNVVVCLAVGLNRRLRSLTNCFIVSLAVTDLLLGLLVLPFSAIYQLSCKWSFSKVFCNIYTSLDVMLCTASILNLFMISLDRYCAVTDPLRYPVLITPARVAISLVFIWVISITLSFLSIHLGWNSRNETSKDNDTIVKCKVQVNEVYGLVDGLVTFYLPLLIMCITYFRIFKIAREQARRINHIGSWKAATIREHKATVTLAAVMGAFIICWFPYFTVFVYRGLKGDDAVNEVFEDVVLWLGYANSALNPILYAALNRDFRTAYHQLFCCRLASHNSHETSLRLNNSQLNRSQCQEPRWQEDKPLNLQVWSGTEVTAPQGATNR

[13] = test system: GAERS rats; assay: Absence epilepsy in GAERS rat; format: in vivo
From the text: A strain of Wistar rats with spontaneously generalized non convulsive seizures (absence seizures) has been developed in Strasbourg (Genetic Absence Epilepsy Rats of Strasbourg or GAERS). Seizures are characterized by bilateral and synchronous spike-and-wave discharges (7-9 Hz) on EEG, concomitant with behavioral arrests. These discharges generally last about 20 sec and occur spontaneously every minute when the animals are in a state of quiet wakefulness. Pharmacological reactivity of this model is similar to human absence-epilepsy (e.g., valproate and ethosuccimide are protective). After a recovery period, implanted rats (cortical and hippocampal EEG electrodes) were recorded over a 20 min reference period. […] Rats received the alternative treatment one week later. Cumulated duration of absence-seizures was measured by 20 min periods during the two sessions. Fast Fourier transform analysis of EEG recording allowed detection of any rhythm change during both ictal and inter-ictal periods (background activity).

[14] = test system: volunteers; assay: Phase I study of subjective satiety, interaction with olanzapine; format: in vivo, human
Experimental: A single-center, open-label, placebo-controlled phase I study was performed to evaluate the subjective satiety in 6 volunteers. The volunteers enrolled in the study underwent five single day administration periods.

[15] = two hours after single oral 40 mg and 60 mg
[16] = 40 mg single dose, monohydrochloride
[17] = 60 mg single dose, monohydrochloride

Cl.Clc1ccc(CCCOCCCN2CCCCC2)cc1 [1-[3-[3-(4-chlorophenyl)propoxy]propyl]-piperidine monohydrochloride]
Melting point, N2 atmosphere (stability to oxidation conditions) ([1]; N2 atmosphere): 117.68 °C
Melting point, O2 atmosphere (stability to oxidation conditions) ([1]; O2 atmosphere): 117.54 °C
stability to oxidation conditions ([1]; melting points under nitrogen vs oxygen atmosphere): better profile of stability to oxidation conditions than other salts
NOAEL at 13 weeks [2]: 30 mg/kg/day
decrease of the A23187-evoked [3H]AA release [3]: 40%
flicker, fusion and flicker-fusion thresholds (CFF) vs placebo ([4]; single 60 mg): higher
ARCI 49 ([4]; single doses 1-60 mg): no trend or statistically significant drug effect
self-perception of sleep (LEEDS), alertness, contentedness and calmness (Bond-Lader VAS), choice reaction time (CRT) ([4]; single doses 1-60 mg): no statistically significant drug effect
EEG rapid activity (20-30 Hz anterior leads, 16 to 40 Hz posterior leads) [4, 15]: statistically significant increase of rapid activity
median peak position (MPP) on the frequency axis [4, 15]: from 10 to 15-17 Hz and from 11 to 13-15 Hz
difference between the affinity at H3R and at other histamine receptors [5]: three orders of magnitude
potency at the human H3R as compared to the mouse H3R ([5]; same test system): about 6 times
Ki [6]: > 100 µM
genotoxicity [7]: not to be genotoxic in vitro or in vivo
Delay of apparition ([8]; 20 mg single dose): 2 h
Duration of effect ([8]; 20 mg single dose): 6 h
Suppression of PPR ([8]; 20 mg single dose, monohydrochloride): No (3×) and Total
Delay of apparition [8, 16]: <1 hour hours and 2 hours
Duration of effect [8, 16]: >8 h and 26 h
Suppression of PPR [8, 16]: No (2×) and Total and Partial
Delay of apparition [8, 17]: 2 hours and <1 hour hours (3×)
Duration of effect [8, 17]: >8 hours (2×) and >36 hours and 26 hours
Suppression of PPR [8, 17]: Partial; also recorded: Total
clinical response ([8]; 60 mg, four patients): clinical response in all four patients
appearance of effect post administration ([8]; 20-60 mg, overall): 1 to 2 h
Ki ([9]; radioligand [3H](R)α-MeHA): 5.7 ± 0.2 nM
Ki ([9]; radioligand [125I]iodoproxyfan): 14 ± 0.1 nM
NOAEL at 13 weeks [10]: 5 mg/kg/day
no-effect dose ([11]; iv): 12 mg/kg
no-effect dose ([11]; po): > 50 mg/kg
maximum non lethal oral dose ([11]; oral): 100 mg/kg
Ki [12]: ~5 µM
reduction of cumulated duration of spike-and-wave discharges vs. saline ([13]; 5 mg/kg, i.p.): 25%
reduction of cumulated duration of spike-and-wave discharges vs. saline ([13]; 20 mg/kg, i.p.): 77%
number and cumulated durations of spike and wave discharges ([13]; 20 mg/kg, i.p., 20, 40 and 60 min after administration): significantly decreased
EEG background activity (spectral analysis of inter-ictal periods) ([13]; epilepsy models): not associated with significant change in EEG background activity
subjective satiety versus placebo ([14]; 60 mg): significantly increased
subjective satiety, association with olanzapine ([14]; 60 mg + olanzapine 5 mg): able to counteract the effect of olanzapine leading to subjective satiety superimposable to placebo
